Results published in the supplement of paper PMC11061612.

Assays:
[1] = compound: C=CCn1c(=O)c2cnc(Nc3ccc(N4CCN(C)CC4)cc3)nc2n1-c1cccc(C(C)(C)O)n1 [AZD1775]; settings: max 3 µM
How it was run: (§1)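 Cancer cell lines in 1536-well plates (7.5 μl DMEM/F12 or RPMI, 10% FBS) were held 24 hours at 37°C and 5% CO2 and then dosed for 72 hours at a final DMSO of typically 0.2%. Viability was taken from CellTiter-Glo 2.0 luminescence, scaled between blank-well and DMSO-well means. Curves were fitted as two-parameter logistic models with a non-linear mixed effects model, from which the single-agent IC50 was taken.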

[2] = compound: C[C@@H](Oc1cc(-c2cnn(C3CCNCC3)c2)cnc1N)c1c(Cl)ccc(F)c1Cl [Crizotinib]; settings: max 10 µM
How it was run: as §1

[3] = compound: CC(=O)c1c(C)c2cnc(Nc3ccc(N4CCNCC4)cn3)nc2n(C2CCCC2)c1=O [Palbociclib]; settings: max 10 µM
How it was run: as §1

[4] = compound: CC1=CN2[C@@H](C1)C=NC3=CC(=C(C=C3C2=O)OC)OCCCCCOC4=C(C=C5C(=C4)N=C[C@@H]6CC(=CN6C5=O)C)OC [SG3199]; settings: max 0.001 µM
How it was run: as §1

[5] = compound: CCc1c2c(nc3ccc(O)cc13)-c1cc3c(c(=O)n1C2)COC(=O)[C@]3(O)CC [SN-38]; settings: max 0.3 µM
How it was run: as §1

[6] = compound: Cn1cnc2c(F)c(Nc3ccc(Br)cc3Cl)c(C(=O)NOCCO)cc21 [Selumetinib]; settings: max 10 µM
How it was run: as §1

[7] = compound: COc1cccc(OCCCN)c1-c1cc(Nc2cnc(C#N)cn2)n[nH]1 [Prexasertib]; settings: max 1 µM
How it was run: as §1

[8] = compound: Cc1nc(-c2cn3c(n2)-c2ccc(-c4cnn(C(C)(C)C(N)=O)c4)cc2OCC3)n(C(C)C)n1 [Taselisib]; settings: max 10 µM
How it was run: as §1

[9] = compound: CC(C)n1c(=O)n(C)c2cnc3cc(F)c(-c4ccc(OCCCN5CCCCC5)nc4)cc3c21 [AZD1390]; settings: max 0.3 µM
How it was run: as §1

[10] = compound: CN(C)CCCOc1ccc(-c2ccc3ncc4c(c3c2)n(C2CCOCC2)c(=O)n4C)cn1 [AZD0156]; settings: max 3 µM
How it was run: as §1

[11] = compound: NC1(c2ccc(-c3nc4ccn5c(=O)[nH]nc5c4cc3-c3ccccc3)cc2)CCC1 [MK-2206]; settings: max 10 µM
How it was run: as §1

[12] = compound: C[C@@H](c1ccc2nccn2c1)n1nnc2ncc(-c3cnn(C)c3)nc21 [Savolitinib]; settings: max 1 µM
How it was run: as §1

[13] = compound: CC1=C(C(=CC=C1)Cl)NC(=O)C2=CN=C(S2)NC3=CC(=NC(=N3)C)N4CCN(CC4)CCO [Dasatinib]; settings: max 2 µM
How it was run: as §1

[14] = compound: C[C@@H](Nc1cc(F)cc(F)c1)c1cc(C(=O)N(C)C)cc2c(=O)cc(N3CCOCC3)oc12 [AZD8186]; settings: max 3 µM
How it was run: as §1

[15] = compound: COc1nnc2ccc(N3CCC(c4ccc(OCCN5CCN(C)C(=O)[C@H]5C)cc4)CC3)nn12 [AZD5153]; settings: max 1 µM
How it was run: as §1

[16] = compound: CS(=O)(=O)CCNCc1ccc(-c2ccc3ncnc(Nc4ccc(OCc5cccc(F)c5)c(Cl)c4)c3c2)o1 [Lapatinib]; settings: max 10 µM
How it was run: as §1

[17] = compound: COc1cc(Nc2ncc3c(n2)-c2ccc(Cl)cc2C(c2c(F)cccc2OC)=NC3)ccc1C(=O)O [Alisertib]; settings: max 10 µM
How it was run: as §1

[18] = compound: CCN(CCO)CCCOc1ccc2c(Nc3cc(CC(=O)Nc4cccc(F)c4)[nH]n3)ncnc2c1 [AZD2811]; settings: max 1 µM
How it was run: as §1

[19] = compound: C1CN(CCC1(C(=O)N[C@@H](CCO)C2=CC=C(C=C2)Cl)N)C3=NC=NC4=C3C=CN4 [Capivasertib]; settings: max 10 µM
How it was run: as §1

[20] = compound: COc1cccc2c1C(=O)c1c(O)c3c(c(O)c1C2=O)C[C@@](O)(C(=O)CO)C[C@@H]3O[C@H]1C[C@H](N)[C@H](O)[C@H](C)O1 [Doxorubicin]; settings: max 1 µM
How it was run: as §1

[21] = compound: CC1(C)CCC(CN2CCN(c3ccc(C(=O)NS(=O)(=O)c4ccc(NCC5CCOCC5)c([N+](=O)[O-])c4)c(Oc4cnc5[nH]ccc5c4)c3)CC2)=C(c2ccc(Cl)cc2)C1 [Venetoclax]; settings: max 1 µM
How it was run: as §1

[22] = compound: O=C(c1cc(Cc2n[nH]c(=O)c3ccccc23)ccc1F)N1CCN(C(=O)C2CC2)CC1 [Olaparib]; settings: max 10 µM
How it was run: as §1

[23] = compound: CC(=O)Nc1cccc(-n2c(=O)n(C3CC3)c(=O)c3c(Nc4ccc(I)cc4F)n(C)c(=O)c(C)c32)c1 [Trametinib]; settings: max 1 µM
How it was run: as §1

[24] = compound: COc1cc2ncnc(Nc3ccc(F)c(Cl)c3)c2cc1OCCCN1CCOCC1 [Gefitinib]; settings: max 10 µM
How it was run: as §1

[25] = compound: Cc1c2c(nn1C)CSCc1cc(n(C)n1)CSc1cc(c3ccccc3c1)OCCCc1c(C(=O)O)n(C)c3c-2c(Cl)ccc13 [AZD5991]; settings: max 1 µM
How it was run: as §1

[26] = compound: CN(CC[C@H](CSC1=CC=CC=C1)NC2=C(C=C(C=C2)S(=O)(=O)NC(=O)C3=CC=C(C=C3)N4CCC(CC4)[C@H](C5=CC=CC=C5C6=CC=C(C=C6)Cl)O)S(=O)(=O)C(F)(F)F)CCO [AZD4320]; settings: max 1 µM
How it was run: as §1

[27] = compound: C[C@@H]1COCCN1C2=NC(=NC(=C2)C3(CC3)[S@](=N)(=O)C)C4=C5C=CNC5=NC=C4 [AZD6738]; settings: max 10 µM
How it was run: as §1

[28] = compound: Cc1cc2ncnn2cc1Nc1ncc2c(n1)n(C1CCOCC1)c(=O)n2C [AZD7648]; settings: max 10 µM
How it was run: as §1

Cell Line | IC50, cell viability 72 h [1] | IC50, cell viability 72 h [2] | IC50, cell viability 72 h [3] | IC50, cell viability 72 h [4] | IC50, cell viability 72 h [5] | IC50, cell viability 72 h [6] | IC50, cell viability 72 h [7] | IC50, cell viability 72 h [8] | IC50, cell viability 72 h [9] | IC50, cell viability 72 h [10] | IC50, cell viability 72 h [11] | IC50, cell viability 72 h [12] | IC50, cell viability 72 h [13] | IC50, cell viability 72 h [14] | IC50, cell viability 72 h [15] | IC50, cell viability 72 h [16] | IC50, cell viability 72 h [17] | IC50, cell viability 72 h [18] | IC50, cell viability 72 h [19] | IC50, cell viability 72 h [20] | IC50, cell viability 72 h [21] | IC50, cell viability 72 h [22] | IC50, cell viability 72 h [23] | IC50, cell viability 72 h [24] | IC50, cell viability 72 h [25] | IC50, cell viability 72 h [26] | IC50, cell viability 72 h [27] | IC50, cell viability 72 h [28]
B-CPAP (Thyroid Gland Carcinoma) | 1420 nM | > 10000 nM | > 10000 nM | > 1 nM | 25 nM | > 10000 nM | 149 nM | > 10000 nM | > 300 nM | > 3000 nM | > 10000 nM | > 1000 nM | 324 nM | > 3000 nM | 379 nM | > 10000 nM | 6620 nM | > 1000 nM | > 10000 nM | 608 nM | > 1000 nM | > 10000 nM | > 1000 nM | > 10000 nM | > 1000 nM | > 1000 nM | > 10000 nM | > 10000 nM
SNU-5 (Gastric Carcinoma) | 1850 nM | 86.9 nM | > 10000 nM | > 1 nM | 6.92 nM | 2570 nM | 18.1 nM | > 10000 nM | > 300 nM | > 3000 nM | > 10000 nM | 7.44 nM | > 2000 nM | > 3000 nM | > 1000 nM | > 10000 nM | > 10000 nM | > 1000 nM | > 10000 nM | > 1000 nM | > 1000 nM | > 10000 nM | 81.1 nM | > 10000 nM | > 1000 nM | > 1000 nM | 1310 nM | > 10000 nM
MFE-296 (Endometrial Carcinoma) | > 3000 nM | > 10000 nM | > 10000 nM | > 1 nM | 158 nM | > 10000 nM | 385 nM | > 10000 nM | > 300 nM | > 3000 nM | > 10000 nM | > 1000 nM | > 2000 nM | > 3000 nM | > 1000 nM | > 10000 nM | > 10000 nM | > 1000 nM | > 10000 nM | > 1000 nM | > 1000 nM | > 10000 nM | > 1000 nM | > 10000 nM | > 1000 nM | > 1000 nM | > 10000 nM | > 10000 nM
COLO-205 (Colorectal Carcinoma) | > 3000 nM | 4110 nM | 7970 nM | > 1 nM | > 300 nM | 302 nM | 782 nM | 4250 nM | > 300 nM | > 3000 nM | – | > 1000 nM | > 2000 nM | > 3000 nM | 499 nM | > 10000 nM | 743 nM | 116 nM | > 10000 nM | 518 nM | > 1000 nM | > 10000 nM | 6.16 nM | > 10000 nM | > 1000 nM | > 1000 nM | > 10000 nM | > 10000 nM
TCCSUP (Bladder Carcinoma) | 2310 nM | > 10000 nM | > 10000 nM | > 1 nM | 201 nM | > 10000 nM | 165 nM | > 10000 nM | > 300 nM | > 3000 nM | – | > 1000 nM | > 2000 nM | > 3000 nM | > 1000 nM | > 10000 nM | > 10000 nM | > 1000 nM | > 10000 nM | > 1000 nM | > 1000 nM | > 10000 nM | > 1000 nM | > 10000 nM | > 1000 nM | > 1000 nM | 8380 nM | > 10000 nM
LU-135 (Small Cell Lung Carcinoma) | 1840 nM | 2590 nM | > 10000 nM | > 1 nM | 27.9 nM | > 10000 nM | 343 nM | > 10000 nM | > 300 nM | > 3000 nM | – | > 1000 nM | > 2000 nM | > 3000 nM | 66.1 nM | 9730 nM | 317 nM | 25.7 nM | > 10000 nM | 214 nM | > 1000 nM | > 10000 nM | > 1000 nM | > 10000 nM | > 1000 nM | 17.6 nM | 6100 nM | > 10000 nM
AGS (Gastric Carcinoma) | 455 nM | > 10000 nM | > 10000 nM | > 1 nM | 22.6 nM | 767 nM | 839 nM | 577 nM | > 300 nM | > 3000 nM | – | > 1000 nM | > 2000 nM | > 3000 nM | 251 nM | > 10000 nM | > 10000 nM | > 1000 nM | > 10000 nM | 151 nM | > 1000 nM | > 10000 nM | 11.9 nM | > 10000 nM | > 1000 nM | > 1000 nM | 4930 nM | > 10000 nM
MDA-MB-361 (Breast Carcinoma) | 515 nM | > 10000 nM | > 10000 nM | > 1 nM | 275 nM | > 10000 nM | 6.52 nM | 103 nM | > 300 nM | > 3000 nM | – | > 1000 nM | > 2000 nM | > 3000 nM | > 1000 nM | > 10000 nM | > 10000 nM | > 1000 nM | 9810 nM | > 1000 nM | > 1000 nM | > 10000 nM | > 1000 nM | > 10000 nM | 579 nM | > 1000 nM | 2180 nM | > 10000 nM
